The text below walks through data of paper PMC3822934 (Journal of Cellular and Molecular Medicine, 2012).

The structures appear in SMILES notation.

The nature of this assay: Comparison of blood glucose lowering with glibenclamide. The class given is in vivo. Particulars: data not shown.

For `COc1ccc(Cl)cc1C(=O)NCCc1ccc(S(=O)(=O)NC(=O)NC2CCCCC2)cc1` [glibenclamide], the “blood glucose lowering activity compared with EH-36” value is listed as “comparable blood glucose lowering activities” and the “onset of the effect compared with EH-36” value is on record as “faster”.
